One assay concerns the target CCK-A receptor. As to the kind of experiment: CCK receptor binding, CCK-A receptor (Pancreas Assay). Here is the method: (§1) The greater affinity of the compounds of the invention for the CCK-B receptor over the CCK-A receptor has also been established using the CCK receptor binding assays described by G Dal Fornos et al., J. Pharmcol. Exp & Ther. 261, 1056-1063, 1992.
(§2) The binding affinity of the compounds of the invention for the CCK-A receptor (Pancreas Assay) and CCK-B receptor (guinea pig cortex assay) was determined using the procedure of G Dal Forno et al J. Pharmacol. Exp & Ther. 261--1056-1063. The pKi values determined with representative compounds of invention were as follows: […]

The next assay addresses T1, CCK-B receptor (Cavia porcellus, UniProt H0VZC5).
T1 construct: CCK-B receptor (guinea pig cortex assay); from tissue; host or cells: guinea pig cortex
Description: CCK receptor binding, CCK-B receptor (guinea pig cortex assay). The settings on record: read-out: pKi CCK-B (converted). On the procedure:
as §1, §2

The structures appear in SMILES notation.

T1 sequence (H0VZC5 entry or part of it): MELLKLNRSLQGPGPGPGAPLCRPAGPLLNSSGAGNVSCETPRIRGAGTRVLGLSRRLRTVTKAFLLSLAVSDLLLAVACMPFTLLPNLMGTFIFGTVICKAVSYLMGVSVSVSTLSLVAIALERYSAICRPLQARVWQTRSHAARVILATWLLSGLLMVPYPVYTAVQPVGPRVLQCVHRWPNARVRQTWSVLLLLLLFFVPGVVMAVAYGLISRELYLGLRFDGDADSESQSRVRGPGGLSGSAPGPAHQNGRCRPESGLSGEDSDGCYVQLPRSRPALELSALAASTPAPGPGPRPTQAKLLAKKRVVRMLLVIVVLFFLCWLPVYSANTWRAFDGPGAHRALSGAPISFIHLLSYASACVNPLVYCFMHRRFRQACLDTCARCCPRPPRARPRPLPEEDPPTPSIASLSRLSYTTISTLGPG

In the case of `O=C(NC1C(=O)N(CCC2CCCC2)c2ccccc2N(c2ccccc2F)C1=O)Oc1ccccc1` (stereo not drawn) [Example 13], the “pKi CCK-A” value on CCK-A receptor is reported as 6.25. Besides, on CCK-B receptor, the Ki is 4.57 nM.
The corresponding values for `CC(C)CCN1C(=O)C(NC(=O)Oc2cccc(N(C)C)c2)C(=O)N(c2ccccc2F)c2ccccc21` (racemic) [Example 8, 3-[3-(N,N-dimethylamino)phenyloxycarbonylamino]-2,4-dioxo-5-(2-fluorophenyl)-1-(3-methylbut-1-yl)-2,3,4,5-tetrahydro-1H-1,5-benzodiazepine] are 6.38 and 1.58 nM.
As for `CC(C)(C)CCN1C(=O)C(NC(=O)Oc2ccccc2)C(=O)N(c2ccccc2F)c2ccccc21` (stereo not drawn) [Example 7], the “pKi CCK-A” value at CCK-A receptor is on record as 6.43. The Ki at CCK-B receptor is 3.89 nM.
The corresponding values for `CC(C)CCN1C(=O)C(NC(=O)Oc2ccccc2)C(=O)N(c2ccccc2)c2ccccc21` (racemic) [Example 1, 2,4-Dioxo-1-(3-methylbut-1-yl)-5-phenyl-3-(phenyloxycarbonylamino)-2,3,4,5-tetrahydro-1H-1,5-benzodiazepine] are 5.29 and 21.4 nM.
Regarding `COc1cccc(OC(=O)NC2C(=O)N(CCC(C)C)c3cc(Cl)ccc3N(c3ccccc3)C2=O)c1` (racemic) [Example 38, 8-Chloro-2,4-dioxo-3-(3-methoxyphenyloxycarbonyl)amino-1-(3-methyl-1-butyl)-5-phenyl-2,3,4,5-tetrahydro-1H-1,5-benzodiazepine], the “pKi CCK-A” value at CCK-A receptor came out at 5.35. Also, on CCK-B receptor, the Ki is 20 nM.
Consider `COc1cccc(OC(=O)NC2C(=O)N(CCC(C)C)c3cc(Cl)c(Cl)cc3N(c3ccccc3)C2=O)c1` (racemic) [Example 25, 7,8-Dichloro-2,4-dioxo-3-(3-methoxyphenyloxycarbonyl)amino-1-(3-methyl-1-butyl)-5-phenyl-2,3,4,5-tetrahydro-1H-1,5-benzodiazepine], for which the “pKi CCK-A” value at CCK-A receptor is on record as 5.37. Further, at CCK-B receptor, the Ki was 6.31 nM.
Consider `CC(C)CCN1C(=O)C(NC(=O)Oc2cccc(N(C)C)c2)C(=O)N(c2ccccc2)c2cc(Cl)c(Cl)cc21` (racemic) [Example 12, 7,8-Dichloro-3[3-(N,N-dimethylamino)phenyloxycarbonylamino]-2,4-dioxo-1-(3-methylbut-1-yl)-5-phenyl-2,3,4,5-tetrahydro-1H-1,5-benzodiazepine], for which the “pKi CCK-A” value at CCK-A receptor was determined as 5.49. Besides, the Ki on CCK-B receptor was 7.41 nM.
Take `CN(C)c1cccc(OC(=O)NC2C(=O)N(CC34CC5CC(CC(C5)C3)C4)c3ccccc3N(c3ccccc3)C2=O)c1` (stereo not drawn) [Example 20]: the “pKi CCK-A” value at CCK-A receptor is listed as 5.48. The Ki on CCK-B receptor is 12.3 nM.
On the same counts, the results for `CC(C)CCN1C(=O)C(NC(=O)Oc2cccc(N(C)C)c2)C(=O)N(c2ccccc2)c2ccc(Cl)cc21` (racemic) [Example 24, 8-Chloro-3-[3-(N,N-dimethylamino)phenyloxycarbonylamino]-2,4-dioxo-1-(3-methylbut-1-yl)-5-phenyl-2,3,4,5-tetrahydro-1H-1,5-benzodiazepine] are 5.89 and 3.39 nM.
On the same counts, the results for `CC(C)C(=O)CN1C(=O)C(NC(=O)Oc2cccc(N(C)C)c2)C(=O)N(c2ccccc2)c2ccccc21` (stereo not drawn) [Example 4, 3-[3-(N,N-dimethylamino)phenyloxycarbonylamino-2,4-dioxo-1-(3-methyl-2-oxo)but-1-yl)-5-phenyl-2,3,4,5-tetrahydro-1H-1,5-benzodiazepine] are 6.25 and 3.09 nM.
The corresponding values for `CN(C)c1cccc(OC(=O)NC2C(=O)N(CCC(C)(C)C)c3ccccc3N(c3ccccc3F)C2=O)c1` (racemic) [Example 9, 3-[3-(N,N-dimethylamino)phenyloxycarbonylamino]-1-(3,3-dimethylbut-1-yl)-2,4-dioxo-5-(2-fluorophenyl)-2,3,4,5-tetrahydro-1H-1,5-benzodiazepine] are 6.75 and 1.02 nM.
Consider `CC(C)CCN1C(=O)C(NC(=O)Oc2cccc(N(C)C)c2)C(=O)N(c2ccccc2)c2ccccc21` (stereo not drawn) [Example 3], for which, at CCK-A receptor, the “pKi CCK-A” value was 6.24. The Ki at CCK-B receptor is 3.16 nM.

The values above are taken from patent US5486514A, “Carbamate derivatives” (Glaxo SpA, priority 1992, dated 1996).
